This is an account of results in paper PMC8348101, “Personal Glucose Meter for α-Glucosidase Inhibitor Screening Based on the Hydrolysis of Maltose” (Molecules, 2021).

The target in the experiment is T1, α-glucosidase (Aspergillus niger, UniProt P56526).
T1 construct: gene aglA
T1 sequence (P56526 26-985): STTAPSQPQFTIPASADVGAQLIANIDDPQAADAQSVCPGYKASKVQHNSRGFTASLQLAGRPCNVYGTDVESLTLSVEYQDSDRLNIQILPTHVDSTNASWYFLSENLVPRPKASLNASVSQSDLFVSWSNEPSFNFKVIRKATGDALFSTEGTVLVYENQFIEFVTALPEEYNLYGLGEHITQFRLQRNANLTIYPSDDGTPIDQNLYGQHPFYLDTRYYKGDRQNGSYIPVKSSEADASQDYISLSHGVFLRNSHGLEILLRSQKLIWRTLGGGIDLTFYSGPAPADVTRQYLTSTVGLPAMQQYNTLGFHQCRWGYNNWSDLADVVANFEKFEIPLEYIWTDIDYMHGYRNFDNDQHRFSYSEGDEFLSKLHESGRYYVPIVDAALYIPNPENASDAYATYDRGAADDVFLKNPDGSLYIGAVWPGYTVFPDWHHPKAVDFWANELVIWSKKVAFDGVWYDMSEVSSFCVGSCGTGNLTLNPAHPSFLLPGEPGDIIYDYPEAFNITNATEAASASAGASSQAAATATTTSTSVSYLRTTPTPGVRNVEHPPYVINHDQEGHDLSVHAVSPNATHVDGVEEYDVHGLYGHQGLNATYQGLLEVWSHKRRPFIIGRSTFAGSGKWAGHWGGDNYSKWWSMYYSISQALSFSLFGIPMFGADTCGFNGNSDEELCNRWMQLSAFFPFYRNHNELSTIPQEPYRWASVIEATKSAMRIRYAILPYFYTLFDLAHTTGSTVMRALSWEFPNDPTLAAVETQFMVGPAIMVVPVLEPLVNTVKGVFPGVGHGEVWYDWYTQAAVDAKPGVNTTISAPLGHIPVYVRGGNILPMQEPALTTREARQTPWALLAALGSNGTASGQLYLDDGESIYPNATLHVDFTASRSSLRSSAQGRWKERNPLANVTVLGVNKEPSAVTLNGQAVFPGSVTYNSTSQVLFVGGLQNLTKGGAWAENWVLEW
Put plainly: personal glucose meter assay of maltose hydrolysis, single concentration […]. Type of experiment: biochemical.
On to `O=Cc1ccc(O)c(O)c1` [protocatechualdehyde], for which at 5000 µM the inhibition was 36.8 ± 2.8%. `O=C(/C=C/c1ccc(O)c2c1[C@H](C(=O)O)[C@@H](c1ccc(O)c(O)c1)O2)O[C@H](Cc1ccc(O)c(O)c1)C(=O)O` [lithospermic acid] displayed an inhibition at 5000 µM of 52.5 ± 3%. For the compound `OC[C@H]1O[C@@H](Oc2c(O)cc(O)cc2/C=C/c2ccc(O)cc2)[C@H](O)[C@@H](O)[C@@H]1O` [TSG, 2,3,5,4′-tetrahydroxy stilbene-2-O-β-D-glucoside], 5000 µM produced 27 ± 2% inhibition.
